Results taken from patent EP2380575B1, “Eslicarbazepine acetate and use” (Bial-Portela & CA, S.A., priority 2005, dated 2006).
Read-outs that look alike come from different tables or passages of the source.

Key:
clinical = settings: both, human, plasma, po, 900 mg
[1] = for share of total systemic drug exposure (as assessed by AUC0-24): 8 days multiple administration
[2] = Trial B: pharmacokinetics following single and repeated doses in healthy young male subjects; type: in vivo, humans; settings: for AUC(0-t) / half-life / Cmax / Tmax: male, human, oral; for AUC(0-t): read-out: Mean AUC0-24h (%CV); for half-life: read-out: Mean apparent t½ (%CV) (converted); for Cmax: read-out: Mean Cmax (%CV)
Method: The study integrated the results of three double-blind, randomized, placebo-controlled trials. To measure the pharmacokinetics of eslicarbazepine acetate following single doses, oral single doses of eslicarbazepine acetate ranging from 20 mg to 2400 mg were administered to healthy young male subjects (6 subjects per dose). The pharmacokinetics of eslicarbazepine acetate following repeated doses were measured by administering repeated oral doses ranging from 400 mg to 2400 mg of eslicarbazepine acetate to healthy young male subjects (6 subjects per dose) over a period of 8 days. Analytical test methods and experimental procedures were similar to those described for Trial A above.

[3] = multiple oral dose of 900 mg eslicarbazepine acetate once-daily, last dose, arithmetic mean
[4] = multiple oral dose of 900 mg eslicarbazepine acetate twice-daily (as titled), last dose, arithmetic mean
[5] = multiple oral dose of 900 mg eslicarbazepine acetate twice-daily (as titled), last dose, arithmetic mean, listed as Eslicarbazepine
[6] = in vivo, 50 mg, single dose 50 mg eslicarbazepine acetate, n=6
[7] = in vivo, 100 mg, single dose 100 mg eslicarbazepine acetate, n=6
[8] = in vivo, 200 mg, single dose 200 mg eslicarbazepine acetate, n=6
[9] = in vivo, 400 mg, last dose of 8-day repeated 400 mg o.d. eslicarbazepine acetate, n=6
[10] = in vivo, 400 mg, single dose 400 mg eslicarbazepine acetate, n=6
[11] = in vivo, 600 mg, single dose 600 mg eslicarbazepine acetate, n=6
[12] = in vivo, 800 mg, last dose of 8-day repeated 800 mg o.d. eslicarbazepine acetate, n=6
[13] = in vivo, 900 mg, single dose 900 mg eslicarbazepine acetate, n=6
[14] = in vivo, 1200 mg, last dose of 8-day repeated 1200 mg o.d. eslicarbazepine acetate, n=6
[15] = in vivo, 1200 mg, single dose 1200 mg eslicarbazepine acetate, n=6
[16] = in vivo, 1800 mg, last dose of 8-day repeated 1800 mg o.d. eslicarbazepine acetate, n=6
[17] = in vivo, 2400 mg, last dose of 8-day repeated 2400 mg o.d. eslicarbazepine acetate, n=6
[18] = plasma, 20 mg, single dose 20 mg eslicarbazepine acetate, n=6
[19] = plasma, 1800 mg, single dose 1800 mg eslicarbazepine acetate, n=6
[20] = plasma, 2400 mg, single dose 2400 mg eslicarbazepine acetate, n=6

SMILES: NC(=O)N1c2ccccc2C[C@H](O)c2ccccc21 [eslicarbazepine]
- AUC(0-inf) (clinical): 389 µg·h/mL
- AUC(0-t) (clinical): 382 µg·h/mL
- Cmax (clinical): 22200 ng/mL
- Tmax (clinical): 2.45 h
- half-life (clinical): 9.12 h
- total exposure in the once-daily group higher than in the twice-daily group ([1]; healthy volunteers, 900 mg daily): at least 26%
- Tmax ([1]; multiple oral dose of 900 mg eslicarbazepine acetate once-daily, last dose): 2.45 h
- AUC(0-t) [1, 3]: 381601 ng·h/mL
- Cmax [1, 3]: 22210 ng/mL
- AUC0-τ ([1]; multiple oral dose of 900 mg eslicarbazepine acetate once-daily, last dose, dosing interval 24 hours): 294.019 µg·h/mL
- Tmax ([1]; multiple oral dose of 900 mg eslicarbazepine acetate twice-daily (as titled), last dose): 2.09 h
- AUC0-∞ [1, 4]: 289.792 µg·h/mL
- AUC(0-t) [1, 4]: 283,014 ng·h/mL
- Cmax [1, 4]: 16,667 ng/mL
- t1/2 [1, 4]: 9.17 h
- AUC(0-t) [1, 5]: 283014 ng·h/mL
- Cmax [1, 5]: 16667 ng/mL
- AUC0-τ ([1]; multiple oral dose of 900 mg eslicarbazepine acetate twice-daily (as titled), last dose, dosing interval 12 hours): 142.08 µg·h/mL
- share of total systemic drug exposure (as assessed by AUC0-24) ([1]; once-daily subjects): approximately 95%
- share of total systemic drug exposure (as assessed by AUC0-24) ([1]; twice-daily subjects): ~96%
- mean AUC0-24h ([2]; 400 mg once-daily doses of eslicarbazepine acetate): 126 µg·h/mL
- mean AUC0-24h ([2]; 2400 mg once-daily doses of eslicarbazepine acetate): 906 µg·h/mL
- Median tmax (range) ([2]; last dose of 8-day repeated 400 mg o.d. eslicarbazepine acetate, n=6): 3 (0.5-7) h
- Median tmax (range) ([2]; last dose of 8-day repeated 800 mg o.d. eslicarbazepine acetate, n=6): 3.5 (1-7) h
- Median tmax (range) ([2]; last dose of 8-day repeated 1200 mg o.d. eslicarbazepine acetate, n=6): 3 (0.5-6) h
- Median tmax (range) ([2]; last dose of 8-day repeated 1800 mg o.d. eslicarbazepine acetate, n=6): 2 (0.5-4) h
- Median tmax (range) ([2]; last dose of 8-day repeated 2400 mg o.d. eslicarbazepine acetate, n=6): 2 (1.5-8) h
- mean Cmax ([2]; last dose, repeated once daily 400 mg doses of eslicarbazepine acetate): 8,800 ng/ML
- mean Cmax ([2]; last dose, repeated once daily 2400 mg doses of eslicarbazepine acetate): 56,500 ng/ML
- AUC(0-t) [2, 6]: 6.7 µg·h/mL
- half-life [2, 6]: 8.1 h
- AUC(0-t) [2, 7]: 16.4 µg·h/mL
- Cmax [2, 7]: 1500 ng/mL
- half-life [2, 7]: 9.3 h
- AUC(0-t) [2, 8]: 30.5 µg·h/mL
- Cmax [2, 8]: 2900 ng/mL
- half-life [2, 8]: 8.4 h
- AUC(0-t) [2, 9]: 126 µg·h/mL
- Cmax [2, 9]: 8800 ng/mL
- half-life [2, 9]: 9.5 h
- AUC(0-t) [2, 10]: 81.5 µg·h/mL
- Cmax [2, 10]: 5200 ng/mL
- half-life [2, 10]: 11.7 h
- AUC(0-t) [2, 11]: 120 µg·h/mL
- Cmax [2, 11]: 8500 ng/mL
- half-life [2, 11]: 12.3 h
- AUC(0-t) [2, 12]: 268 µg·h/mL
- Cmax [2, 12]: 18700 ng/mL
- half-life [2, 12]: 12.3 h
- AUC(0-t) [2, 13]: 210 µg·h/mL
- Cmax [2, 13]: 15000 ng/mL
- half-life [2, 13]: 16.3 h
- AUC(0-t) [2, 14]: 423 µg·h/mL
- Cmax [2, 14]: 25500 ng/mL
- half-life [2, 14]: 13.1 h
- AUC(0-t) [2, 15]: 286 µg·h/mL
- Cmax [2, 15]: 18600 ng/mL
- half-life [2, 15]: 16.5 h
- AUC(0-t) [2, 16]: 740 µg·h/mL
- Cmax [2, 16]: 47700 ng/mL
- half-life [2, 16]: 11.3 h
- AUC(0-t) [2, 17]: 906 µg·h/mL
- Cmax [2, 17]: 56500 ng/mL
- half-life [2, 17]: 10.4 h
- Tmax ([2]; in vivo, single dose 50 mg eslicarbazepine acetate, n=6, read-out: Median tmax (range)): 0.8 h
- Tmax ([2]; in vivo, single dose 100 mg eslicarbazepine acetate, n=6, read-out: Median tmax (range)): 1.5 h
- Tmax ([2]; in vivo, single dose 200 mg eslicarbazepine acetate, n=6, read-out: Median tmax (range)): 1.5 h
- Tmax ([2]; in vivo, single dose 400 mg eslicarbazepine acetate, n=6, read-out: Median tmax (range)): 4 h
- Tmax ([2]; in vivo, single dose 600 mg eslicarbazepine acetate, n=6, read-out: Median tmax (range)): 4 h
- Tmax ([2]; in vivo, single dose 900 mg eslicarbazepine acetate, n=6, read-out: Median tmax (range)): 2.3 h
- Tmax ([2]; in vivo, single dose 1200 mg eslicarbazepine acetate, n=6, read-out: Median tmax (range)): 4 h
- AUC(0-t) [2, 18]: 2.4 µg·h/mL
- Cmax [2, 18]: 300 ng/mL
- half-life [2, 18]: 9.1 h
- Cmax ([2]; plasma, 50 mg, single dose 50 mg eslicarbazepine acetate, n=6): 900 ng/mL
- AUC(0-t) [2, 19]: 508 µg·h/mL
- Cmax [2, 19]: 34600 ng/mL
- half-life [2, 19]: 11.8 h
- AUC(0-t) [2, 20]: 0.446 µg·h/mL
- Cmax [2, 20]: 35900 ng/mL
- half-life [2, 20]: 11.1 h
- Tmax ([2]; plasma, last dose, repeated once daily, all dosages, read-out: median tmax): 2 to 3.5 h
- Tmax ([2]; plasma, single dose 20 mg eslicarbazepine acetate, n=6, read-out: Median tmax (range)): 0.8 h
- Tmax ([2]; plasma, single dose 1800 mg eslicarbazepine acetate, n=6, read-out: Median tmax (range)): 3.5 h
- Tmax ([2]; plasma, single dose 2400 mg eslicarbazepine acetate, n=6, read-out: Median tmax (range)): 3 h
